Test results published in US20260042764A1, “COMPOSITIONS AND METHODS FOR INHIBITION OF KRAS” (TheRas, Inc., priority 2022, published 2026).

Columns and labels:
[1] = target: T1, Avi-KRAS G12R (1-169) GppNHp/RAF1 RBD-3xFLAG (52-151) (Homo sapiens, UniProt P01116, G12R); test: Raf1-KRAS G12R-GppNHP disruption HTRF assay (Biological Example 1); type: binding; details: KRAS G12R, GppNHp-loaded; class symbols
T1 construct: Avi-KRAS G12R (1-169)
Procedure, shortened: (§1)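 Read-out is HTRF signal of the KRAS–RAF1 RBD complex, reported as percentage of activity relative to DMSO (100%). Protein mix and detection reagents each incubated 1 h at room temperature with 700 rpm shaking. Buffer: 50 mM Tris pH 7.5, 100 mM NaCl, 5 mM MgCl2, 0.1% BSA, 0.01% Tween, 10% DMSO.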

[2] = tested on: SW620 cells (KRAS G12V); test: Cell-based pERK HTRF assay in SW620 cell (Biological Example 4); details: pERK HTRF, class symbols
Procedure, shortened: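 SW620 (KRAS G12V) cells seeded at 3×10^4/well in RPMI, 10% FBS, then treated next day for 4 h with a 9-point half-log series from 1 μM top (0.25% DMSO). Lysates analyzed for pERK by HTRF (Eu cryptate/d2 antibodies, 4–24 h at room temperature), excitation 320 nm, emission 615 nm.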

[3] = tested on: GP2d cells (KRAS G12D); test: Cell-based pERK HTRF assay in GP2d cell (Biological Example 2); details: GP2d (KRAS G12D) cells, pERK HTRF, class symbols
Procedure, shortened: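 HTRF read-out of pERK (excitation 320 nm, emission 615 nm) after lysates sat 4–24 h at room temperature with Eu cryptate and d2 antibodies.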

[4] = target: T2, Avi-KRAS G12V (1-169) GppNHp/RAF1 RBD-3xFLAG (52-151) (Homo sapiens, UniProt P01116, G12V); test: Raf1-KRAS G12V-GppNHP disruption HTRF assay (Biological Example 1); type: binding; details: KRAS G12V, GppNHp-loaded; class symbols
T2 construct: Avi-KRAS G12V (1-169)
Procedure, shortened: as §1

[5] = target: T3, Avi-KRAS G12D (1-169) GppNHp/RAF1 RBD-3xFLAG (52-151) (Homo sapiens, UniProt P01116, G12D); test: Raf1-KRAS G12D-GppNHP disruption HTRF assay (Biological Example 1); type: binding; details: KRAS G12D, GppNHp-loaded; class symbols
T3 construct: Avi-KRAS G12D (1-169)
Procedure, shortened: as §1

[6] = target: T4, Avi-KRAS WT (1-169) GppNHp/RAF1 RBD-3xFLAG (52-151) (Homo sapiens, UniProt P01116); test: Raf1-KRAS WT-GppNHP disruption HTRF assay (Biological Example 1); type: binding; details: KRAS WT, GppNHp-loaded; class symbols
T4 construct: Avi-KRAS WT (1-169)
Procedure, shortened: as §1

[7] = Homo sapiens, SW-620, SW620 (KRAS G12V) cells

T4 sequence (P01116 1-169 isoform P01116-2): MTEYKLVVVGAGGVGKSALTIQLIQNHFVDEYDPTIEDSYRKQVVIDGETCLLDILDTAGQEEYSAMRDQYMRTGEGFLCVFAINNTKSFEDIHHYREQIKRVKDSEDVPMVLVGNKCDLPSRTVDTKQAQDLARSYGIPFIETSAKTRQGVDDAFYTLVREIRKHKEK
T1 sequence (P01116 1-169 isoform P01116-2 G12R): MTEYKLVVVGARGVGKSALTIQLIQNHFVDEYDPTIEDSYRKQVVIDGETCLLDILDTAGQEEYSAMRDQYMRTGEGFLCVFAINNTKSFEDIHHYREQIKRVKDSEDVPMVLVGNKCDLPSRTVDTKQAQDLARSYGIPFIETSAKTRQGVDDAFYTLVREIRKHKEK
T2 sequence (P01116 1-169 isoform P01116-2 G12V): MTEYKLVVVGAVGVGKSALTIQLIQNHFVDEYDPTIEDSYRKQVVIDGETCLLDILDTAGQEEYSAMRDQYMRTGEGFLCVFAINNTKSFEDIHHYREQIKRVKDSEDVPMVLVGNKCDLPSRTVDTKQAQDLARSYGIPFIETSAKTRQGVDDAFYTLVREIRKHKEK
T3 sequence (P01116 1-169 isoform P01116-2 G12D): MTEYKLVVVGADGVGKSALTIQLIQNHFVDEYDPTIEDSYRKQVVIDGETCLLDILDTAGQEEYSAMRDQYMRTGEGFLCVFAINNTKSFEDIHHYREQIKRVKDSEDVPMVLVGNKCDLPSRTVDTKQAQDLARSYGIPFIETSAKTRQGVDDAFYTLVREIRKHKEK

Row | Compound | IC50 [1] [µM] | IC50 [2, 7] [µM] | IC50 ([3]; GP2d) [µM] | IC50 [4] [µM] | IC50 [5] [µM] | IC50 [6] [µM] | IC50 ([2]; SW620 (KRAS G12V) cells) [µM] | IC50 [3] [µM]
1 | CCN(CC)C(=O)c1cc2n(n1)CCN(c1nc(OCC34CCCN3CC(F)C4)nc3c(F)c(-c4ccc(F)c5sc(N)c(C#N)c45)c(C(F)(F)F)cc13)C2 (stereo not drawn) [Compound 645] | 0.1 to 1 | < 0.1 | < 0.1 | 0.1 to 1 | 0.1 to 1 | 0.1 to 1 | – | –
2 | CCN(c1nc(OC[C@@]23CCCN2C[C@H](F)C3)nc2c(F)c(-c3ccc(F)c4sc(N)c(C#N)c34)c(C(F)(F)F)cc12)[C@H]1CCN(C(=O)N2CC3CC(C2)O3)C1 [Compound 651] | < 0.1 | < 0.1 | < 0.1 | < 0.1 | < 0.1 | < 0.1 | – | –
3 | CCN(c1nc(OC[C@@]23CCCN2C[C@H](F)C3)nc2c(F)c(-c3ccc(F)c4sc(N)c(C#N)c34)c(C(F)(F)F)cc12)C1CCN(C(=O)N2C3COCC2C3)C1 (stereo partly drawn) [Compound 652] | < 0.1 | < 0.1 | < 0.1 | < 0.1 | < 0.1 | < 0.1 | – | –
4 | CCN(c1nc(OC[C@@]23CCCN2C[C@H](F)C3)nc2c(F)c(-c3ccc(F)c4sc(N)c(C#N)c34)c(C(F)(F)F)cc12)[C@H]1CCN(C(=O)N2CC3C(C2)C3(F)F)C1 (stereo partly drawn) [Compound 657] | < 0.1 | < 0.1 | < 0.1 | < 0.1 | < 0.1 | < 0.1 | – | –
5 | CC#CC(=O)N1CC[C@@H](N(C)c2nc(OC[C@@]34CCCN3C[C@H](F)C4)nc3c(F)c(-c4ccc(F)c5sc(N)c(C#N)c45)c(C(F)(F)F)cc23)[C@H]1C [Compound 668] | 0.1 to 1 | < 0.1 | < 0.1 | 0.1 to 1 | 0.1 to 1 | 0.1 to 1 | – | –
6 | C=C(F)C(=O)N1CC[C@@H](N(C)c2nc(OC[C@@]34CCCN3C[C@H](F)C4)nc3c(F)c(-c4ccc(F)c5sc(N)c(C#N)c45)c(C(F)(F)F)cc23)[C@H]1C [Compound 669] | 0.1 to 1 | < 0.1 | < 0.1 | 0.1 to 1 | 0.1 to 1 | 0.1 to 1 | – | –
7 | C/C=C/C(=O)N1CC[C@@H](N(C)c2nc(OC[C@@]34CCCN3C[C@H](F)C4)nc3c(F)c(-c4ccc(F)c5sc(N)c(C#N)c45)c(C(F)(F)F)cc23)[C@H]1C [Compound 670] | 0.1 to 1 | < 0.1 | < 0.1 | 0.1 to 1 | 0.1 to 1 | 0.1 to 1 | – | –
8 | C=C(C)C(=O)N1CC[C@@H](N(C)c2nc(OC[C@@]34CCCN3C[C@H](F)C4)nc3c(F)c(-c4ccc(F)c5sc(N)c(C#N)c45)c(C(F)(F)F)cc23)[C@H]1C [Compound 671] | 0.1 to 1 | 0.1 to 1 | < 0.1 | 0.1 to 1 | 0.1 to 1 | 0.1 to 1 | – | –
9 | C/C=C\C(=O)N1CC[C@@H](N(C)c2nc(OC[C@@]34CCCN3C[C@H](F)C4)nc3c(F)c(-c4ccc(F)c5sc(N)c(C#N)c45)c(C(F)(F)F)cc23)[C@H]1C [Compound 672] | 0.1 to 1 | < 0.1 | < 0.1 | 0.1 to 1 | 0.1 to 1 | 0.1 to 1 | – | –
10 | CC1c2cc(C(=O)N(C)C)nn2CCN1c1nc(OCC23CCCN2CC(F)C3)nc2c(F)c(-c3ccc(F)c4sc(N)c(C#N)c34)c(C(F)(F)F)cc12 (stereo not drawn) [Compound 701] | 1 to 10 | – | – | 1 to 10 | 1 to 10 | > 10 | < 0.1 | < 0.1
11 | CCN(c1nc(OCC23CCCN2CC(F)C3)nc2c(F)c(-c3ccc(F)c4sc(N)c(C#N)c34)c(C(F)(F)F)cc12)C1CCN(C(=O)c2ccncc2)C1 (stereo not drawn) [Compound 709] | < 0.1 | < 0.1 | < 0.1 | < 0.1 | < 0.1 | < 0.1 | – | –
12 | CCN(c1nc(OC[C@@]23CCCN2C[C@H](F)C3)nc2c(F)c(-c3ccc(F)c4sc(N)c(C#N)c34)c(C(F)(F)F)cc12)[C@H]1CCN(C(=O)OC2CCN(C(C)=O)C2)C1 (stereo partly drawn) [Compound 711] | < 0.1 | < 0.1 | < 0.1 | < 0.1 | < 0.1 | < 0.1 | – | –
13 | CCN(c1nc(OCC23CCCN2CC(F)C3)nc2c(F)c(-c3ccc(F)c4sc(N)c(C#N)c34)c(C(F)(F)F)cc12)C1CCN(C(=O)c2ncccn2)C1 (stereo not drawn) [Compound 712] | < 0.1 | < 0.1 | < 0.1 | < 0.1 | < 0.1 | < 0.1 | – | –
14 | CCN(c1nc(OCC23CCCN2CC(F)C3)nc2c(F)c(-c3ccc(F)c4sc(N)c(C#N)c34)c(C(F)(F)F)cc12)C1CCN(C(=O)c2cccnc2)C1 (stereo not drawn) [Compound 715] | < 0.1 | < 0.1 | < 0.1 | < 0.1 | < 0.1 | < 0.1 | – | –
15 | CCN(c1nc(OCC23CCCN2CC(F)C3)nc2c(F)c(-c3ccc(F)c4sc(N)c(C#N)c34)c(C(F)(F)F)cc12)C1CCN(C(=O)c2ccccn2)C1 (stereo not drawn) [Compound 737] | < 0.1 | < 0.1 | < 0.1 | < 0.1 | < 0.1 | < 0.1 | – | –
16 | CN(C)C(=O)c1nn2c(c1C1CC1)CN(c1nc(OCC34CCCN3CC(F)C4)nc3c(F)c(-c4ccc(F)c5sc(N)c(C#N)c45)c(C(F)(F)F)cc13)CC2 (stereo not drawn) [Compound 738] | 0.1 to 1 | < 0.1 | < 0.1 | 0.1 to 1 | 0.1 to 1 | 0.1 to 1 | – | –
17 | CCN(CC)C(=O)c1nn2c(c1C)CN(c1nc(OCC34CCCN3CC(F)C4)nc3c(F)c(-c4ccc(F)c5sc(N)c(C#N)c45)c(C(F)(F)F)cc13)CC2 (stereo not drawn) [Compound 740] | 0.1 to 1 | < 0.1 | < 0.1 | 0.1 to 1 | 0.1 to 1 | 0.1 to 1 | – | –
18 | Cc1c(C(=O)N2CCC2)nn2c1CN(c1nc(OCC34CCCN3CC(F)C4)nc3c(F)c(-c4ccc(F)c5sc(N)c(C#N)c45)c(C(F)(F)F)cc13)CC2 (stereo not drawn) [Compound 742] | 0.1 to 1 | < 0.1 | < 0.1 | 0.1 to 1 | 0.1 to 1 | 1 to 10 | – | –
19 | CCN(c1nc(OCC23CCCN2CC(F)C3)nc2c(F)c(-c3ccc(F)c4sc(N)c(C#N)c34)c(C(F)(F)F)cc12)C1CCN(C(=O)c2ncon2)C1 (stereo not drawn) [Compound 754] | < 0.1 | < 0.1 | < 0.1 | 0.1 to 1 | < 0.1 | 0.1 to 1 | – | –
20 | CCc1c(C(=O)N(C)C)nn2c1CN(c1nc(OCC34CCCN3CC(F)C4)nc3c(F)c(-c4ccc(F)c5sc(N)c(C#N)c45)c(C(F)(F)F)cc13)CC2 (stereo not drawn) [Compound 773] | 0.1 to 1 | < 0.1 | < 0.1 | 0.1 to 1 | 0.1 to 1 | 0.1 to 1 | – | –
